Laboratory results taken from the supplement of paper PMC10307832.

Assays:
Test in all cases: relative viability (nuclei count vs DMSO), 5 days (fraction); higher = more cells survive
[1] = compound: CCN(CCO)CCCC(C)Nc1ccnc2cc(Cl)ccc12 [Hydroxychloroquine] + O=C(c1cc(Cc2n[nH]c(=O)c3ccccc23)ccc1F)N1CCN(C(=O)C2CC2)CC1 [Olaparib] (partner 8 µM)
How it was run: (§1)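 Nuclei were stained with Hoechst during a one-step fixation (final 0.05% Triton X-100, 1% formaldehyde, 1 ug/ml Hoechst) carried out 5 days after dosing, then counted on 4× images. The cells, lung cancer lines in 1536-well plates, had been dosed by pin tool the day after seeding with one drug alone or a fixed anchor-drug dose plus five library-drug doses (not always all listed) in √10 steps. Relative viability is the nuclei count in treated wells divided by that in vehicle wells, and each value is the median of duplicate plates.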

[2] = compound: CCN(CCO)CCCC(C)Nc1ccnc2cc(Cl)ccc12 [Hydroxychloroquine] + CC(C)C[C@H](NC(=O)[C@H](Cc1ccccc1)NC(=O)c1cnccn1)B(O)O [Bortezomib] (partner 0.002 µM)
How it was run: as §1

[3] = compound: CCN(CCO)CCCC(C)Nc1ccnc2cc(Cl)ccc12 [Hydroxychloroquine] + Nc1nc2[nH]cc(CCc3ccc(C(=O)N[C@@H](CCC(=O)O)C(=O)O)cc3)c2c(=O)[nH]1 [Pemetrexed] (partner 0.2 µM)
How it was run: as §1

[4] = compound: CCN(CCO)CCCC(C)Nc1ccnc2cc(Cl)ccc12 [Hydroxychloroquine] + Cc1nc(NC(=O)N2CCC[C@H]2C(N)=O)sc1-c1ccnc(C(C)(C)C(F)(F)F)c1 [Alpelisib] (partner 2 µM)
How it was run: as §1

Row | Cell Line | relative viability ([1]; first compound 0.5 µM) | relative viability ([1]; first compound 1.581 µM) | relative viability ([1]; first compound 5 µM) | relative viability ([1]; first compound 15.81 µM) | relative viability ([1]; first compound 50 µM) | relative viability ([2]; first compound 0.5 µM) | relative viability ([2]; first compound 1.581 µM) | relative viability ([2]; first compound 5 µM) | relative viability ([2]; first compound 15.81 µM) | relative viability ([2]; first compound 50 µM) | relative viability ([3]; first compound 0.5 µM) | relative viability ([3]; first compound 1.581 µM) | relative viability ([3]; first compound 5 µM) | relative viability ([3]; first compound 15.81 µM) | relative viability ([3]; first compound 50 µM) | relative viability ([4]; first compound 0.5 µM) | relative viability ([4]; first compound 1.581 µM) | relative viability ([4]; first compound 5 µM) | relative viability ([4]; first compound 15.81 µM) | relative viability ([4]; first compound 50 µM)
1 | HCC-78 | 0.899 | 0.841 | 0.794 | 0.864 | 0.923 | 0.425 | 0.482 | 0.525 | 0.519 | 0.568 | 0.927 | 0.973 | 0.902 | 0.891 | 0.959 | 0.394 | 0.299 | 0.316 | 0.331 | 0.31
2 | HCC-366 | 0.312 | 0.362 | 0.354 | 0.342 | 0.375 | 1.1 | 1.15 | 1.04 | 1.06 | 1.16 | 0.157 | 0.151 | 0.14 | 0.18 | 0.177 | 0.569 | 0.375 | 0.368 | 0.434 | 0.482
3 | HCC-827 | 0.645 | 0.618 | 0.591 | 0.54 | 0.561 | 1.03 | 1.04 | 1.07 | 1.16 | 1.01 | 0.225 | 0.275 | 0.259 | 0.259 | 0.23 | 1.05 | 1.03 | 0.939 | 1.03 | 0.979
4 | HOP-62 | 0.368 | 0.232 | 0.443 | 0.496 | 0.394 | 0.652 | 0.9 | 0.751 | 0.945 | 1.02 | 0.331 | 0.312 | 0.33 | 0.344 | 0.343 | 0.997 | 1.18 | 1.15 | 1 | 1.04
5 | IA-LM | 0.756 | 0.887 | 0.8 | 0.892 | 0.754 | 0.695 | 0.83 | 0.909 | 0.758 | 1 |  |  |  |  |  | 0.878 | 0.377 | 0.811 | 0.607 | 0.887
6 | LC-2-ad | 0.673 | 0.664 | 0.738 | 0.725 | 0.772 | 0.974 | 1.03 | 1.04 | 1.01 | 1.12 | 0.272 | 0.273 | 0.244 | 0.261 | 0.282 | 0.873 | 0.851 | 0.904 | 0.873 | 0.93
7 | LK-2 | 0.734 | 0.719 | 0.659 | 0.648 | 0.874 |  |  |  |  |  | 0.299 | 0.261 | 0.256 | 0.274 | 0.206 | 1.02 |  | 1.26 | 1.27 | 1.24
8 | NCI-H358 | 0.675 | 0.585 | 0.522 | 0.973 | 0.571 |  |  |  |  |  | 0.164 | 0.166 | 0.179 | 0.161 | 0.179 | 0.832 | 0.698 | 0.775 | 0.91 | 0.8
9 | NCI-H522 | 0.578 |  | 0.68 | 0.642 | 0.608 |  |  |  |  |  | 1.02 |  | 1.39 | 0.974 | 0.98 |  |  |  |  | 
10 | NCI-H727 | 0.738 | 0.673 | 0.653 | 0.73 | 0.629 | 0.975 | 0.749 | 0.89 | 0.823 | 0.885 |  |  |  |  |  | 0.454 | 0.58 | 0.589 | 0.512 | 0.526
11 | NCI-H1299 | 0.997 | 0.974 | 0.947 | 1.01 | 0.917 | 1.01 | 1.01 | 1.04 | 1.03 | 0.942 |  |  |  |  |  | 0.999 | 1.04 | 1.03 | 1.12 | 0.996
12 | NCI-H1395 | 0.46 | 0.467 | 0.471 | 0.512 | 0.423 |  |  |  |  |  | 0.83 | 0.936 | 0.717 | 0.793 | 0.779 | 0.979 | 0.899 | 0.975 | 1.09 | 0.954
13 | NCI-H1563 |  |  |  |  |  | 0.891 | 0.784 | 0.923 | 0.779 | 0.759 | 0.888 | 0.692 | 0.724 | 0.78 | 0.875 | 0.908 | 0.877 | 1 | 0.888 | 0.871
14 | NCI-H1648 | 0.766 | 0.965 | 1.01 | 1.06 | 0.926 |  |  |  |  |  | 0.844 | 0.785 | 0.734 | 0.859 | 0.694 |  |  |  |  | 
15 | NCI-H1650 | 0.804 | 0.781 | 0.788 | 0.881 | 0.917 | 0.203 | 0.221 | 0.218 | 0.227 | 0.219 | 0.337 | 0.331 | 0.342 | 0.397 | 0.346 |  |  |  |  | 
16 | NCI-H1703 | 0.424 | 0.431 | 0.556 | 0.467 | 0.446 | 0.322 | 0.273 | 0.284 | 0.291 | 0.316 |  |  |  |  |  | 0.401 | 0.21 | 0.326 | 0.343 | 0.367
17 | NCI-H1793 | 0.866 | 0.814 | 0.878 | 0.906 | 0.728 |  |  |  |  |  | 0.982 | 0.913 | 0.753 | 0.628 | 0.632 | 0.832 | 0.738 | 0.635 | 0.736 | 0.749
18 | NCI-H1944 | 0.417 | 0.445 | 0.416 | 0.414 | 0.402 |  |  |  |  |  | 0.691 | 0.586 | 0.531 | 0.586 | 0.648 | 0.797 | 0.778 | 0.858 | 0.794 | 0.848
19 | NCI-H2170 | 0.647 | 0.568 | 0.679 | 0.528 | 0.734 |  |  |  |  |  | 0.341 | 0.265 | 0.255 | 0.233 | 0.29 | 0.832 | 0.797 | 0.844 | 0.801 | 0.835
20 | NCI-H2342 | 0.434 | 0.386 | 0.42 | 0.421 | 0.509 |  |  |  |  |  | 0.744 | 0.695 | 0.75 | 0.81 | 0.906 |  |  |  |  | 
21 | SK-MES-1 | 0.812 | 0.683 | 0.724 | 0.738 | 0.671 |  |  |  |  |  | 1.03 | 0.73 | 1.02 | 1.05 | 0.945 | 0.697 | 0.765 | 1.01 | 0.952 | 0.929
